Measured values as given in ChEMBL document CHEMBL1201862, “PubChem BioAssay data set” (2004).
Each block holds one compound with its values, some of them ahead of it. Activity calls are given as the source filed them.

Key:
[1] = biological target: Glyceraldehyde-3-phosphate dehydrogenase (Homo sapiens, UniProt P04406)
Bcl-2-related protein A1 [2] = biological target: T1, Bcl-2-related protein A1 (Mus musculus, UniProt Q07440); assay: small-molecule antagonists of Bfl-1/BH3 interaction – biochemical, TR-FRET, mouse Bfl-1, confirmation (AID 621);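 note: TR-FRET binding of GST-Bfl-1 to FITC-labelled Bid peptide via terbium antibody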
T1 sequence (Q07440 whole entry): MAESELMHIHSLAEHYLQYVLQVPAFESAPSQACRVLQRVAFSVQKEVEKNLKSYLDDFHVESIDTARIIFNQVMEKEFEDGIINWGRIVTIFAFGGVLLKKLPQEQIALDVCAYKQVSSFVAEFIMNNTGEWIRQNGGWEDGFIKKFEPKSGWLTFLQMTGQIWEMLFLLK

Bcl-2-related protein A1 [3] = biological target: T1, Bcl-2-related protein A1; assay: Bfl-1 binding inhibitors, SAR follow-up, biochemical, fluorescence polarization (AID 1070)
Estrogen receptor beta = Estrogen receptor beta (Homo sapiens, UniProt Q92731); assay: blockers of SRC-3 recruitment to ERβ – biochemical, ELISA, streptavidin-HRP readout, orthogonal assay, confirmation (AID 1060)
[4] = biological target: T2, Mannose-6-phosphate isomerase (Homo sapiens, UniProt P34949); assay: MPI inhibition at elevated mannose 6-phosphate – biochemical, fluorescence intensity, high mannose 6-phosphate, primary screen (AID 1220)
T2 sequence (P34949 whole entry): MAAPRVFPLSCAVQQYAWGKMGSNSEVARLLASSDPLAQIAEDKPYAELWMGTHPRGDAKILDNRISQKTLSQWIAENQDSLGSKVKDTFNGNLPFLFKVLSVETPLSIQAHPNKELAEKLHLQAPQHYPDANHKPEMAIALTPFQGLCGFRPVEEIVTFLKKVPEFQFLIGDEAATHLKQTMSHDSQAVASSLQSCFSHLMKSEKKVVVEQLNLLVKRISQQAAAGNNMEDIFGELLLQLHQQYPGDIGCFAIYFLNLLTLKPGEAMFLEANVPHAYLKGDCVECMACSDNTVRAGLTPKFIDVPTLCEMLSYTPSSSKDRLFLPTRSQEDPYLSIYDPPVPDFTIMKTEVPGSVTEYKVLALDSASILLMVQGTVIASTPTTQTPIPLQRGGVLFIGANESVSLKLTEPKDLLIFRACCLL

[5] = biological target: Eukaryotic translation initiation factor 4E (Mus musculus, UniProt P63073); assay: blockers of eIF4G binding by eIF4E – biochemical, TR-FRET, dose response (AID 855); type: functional;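 note: potency for disrupting eIF4E binding to eIF4GI seen as loss of FRET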
[6] = biological target: T3, 1-phosphatidylinositol 4,5-bisphosphate phosphodiesterase gamma-1 (Homo sapiens, UniProt P19174); assay: Counterscreen for inhibitors of phospholipase C isozymes (PLC-B3): Fluorescence-based biochemical high throughput dose response assay to identify inhibitors of phospholipase C isozymes (PLC-gamma1).
T3 sequence (P19174 whole entry): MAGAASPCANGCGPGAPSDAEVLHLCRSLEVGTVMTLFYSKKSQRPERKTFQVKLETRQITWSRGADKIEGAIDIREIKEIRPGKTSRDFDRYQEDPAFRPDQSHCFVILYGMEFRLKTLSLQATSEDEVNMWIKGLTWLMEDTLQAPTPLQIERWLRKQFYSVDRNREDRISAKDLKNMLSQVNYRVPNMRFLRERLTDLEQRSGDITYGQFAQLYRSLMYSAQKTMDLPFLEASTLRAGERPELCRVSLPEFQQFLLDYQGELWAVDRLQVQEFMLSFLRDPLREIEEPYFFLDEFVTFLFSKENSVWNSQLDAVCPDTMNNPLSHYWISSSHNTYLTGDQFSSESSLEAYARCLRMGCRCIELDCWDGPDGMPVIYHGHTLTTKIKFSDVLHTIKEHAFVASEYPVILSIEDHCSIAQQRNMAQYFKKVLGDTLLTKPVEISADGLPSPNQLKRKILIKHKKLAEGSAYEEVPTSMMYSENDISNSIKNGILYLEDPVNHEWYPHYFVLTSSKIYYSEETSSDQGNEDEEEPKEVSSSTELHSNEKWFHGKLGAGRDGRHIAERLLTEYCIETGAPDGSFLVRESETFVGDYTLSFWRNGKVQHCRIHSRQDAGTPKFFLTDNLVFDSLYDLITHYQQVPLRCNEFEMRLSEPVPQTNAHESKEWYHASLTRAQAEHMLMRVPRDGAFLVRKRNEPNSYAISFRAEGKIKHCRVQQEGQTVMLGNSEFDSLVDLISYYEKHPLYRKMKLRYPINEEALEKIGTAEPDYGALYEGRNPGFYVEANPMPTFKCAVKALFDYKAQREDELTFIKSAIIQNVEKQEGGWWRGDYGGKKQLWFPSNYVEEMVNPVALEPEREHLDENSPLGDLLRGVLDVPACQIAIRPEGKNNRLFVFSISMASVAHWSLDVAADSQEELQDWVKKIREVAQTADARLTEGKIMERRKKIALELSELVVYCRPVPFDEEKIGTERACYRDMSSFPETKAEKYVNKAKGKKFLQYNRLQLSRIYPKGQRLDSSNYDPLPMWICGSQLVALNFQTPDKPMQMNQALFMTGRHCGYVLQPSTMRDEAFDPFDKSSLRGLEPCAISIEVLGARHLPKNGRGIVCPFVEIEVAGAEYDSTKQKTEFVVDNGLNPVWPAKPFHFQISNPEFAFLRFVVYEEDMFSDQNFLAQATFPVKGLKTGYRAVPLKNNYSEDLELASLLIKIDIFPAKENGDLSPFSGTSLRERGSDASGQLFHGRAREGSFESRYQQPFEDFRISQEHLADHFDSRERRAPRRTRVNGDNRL

[7] = biological target: T4, 1-phosphatidylinositol 4,5-bisphosphate phosphodiesterase beta-3 (Homo sapiens, UniProt Q01970); assay: Fluorescence-based biochemical high throughput dose response assay to identify inhibitors of phospholipase C isozymes (PLC-B3).
T4 sequence (Q01970 whole entry): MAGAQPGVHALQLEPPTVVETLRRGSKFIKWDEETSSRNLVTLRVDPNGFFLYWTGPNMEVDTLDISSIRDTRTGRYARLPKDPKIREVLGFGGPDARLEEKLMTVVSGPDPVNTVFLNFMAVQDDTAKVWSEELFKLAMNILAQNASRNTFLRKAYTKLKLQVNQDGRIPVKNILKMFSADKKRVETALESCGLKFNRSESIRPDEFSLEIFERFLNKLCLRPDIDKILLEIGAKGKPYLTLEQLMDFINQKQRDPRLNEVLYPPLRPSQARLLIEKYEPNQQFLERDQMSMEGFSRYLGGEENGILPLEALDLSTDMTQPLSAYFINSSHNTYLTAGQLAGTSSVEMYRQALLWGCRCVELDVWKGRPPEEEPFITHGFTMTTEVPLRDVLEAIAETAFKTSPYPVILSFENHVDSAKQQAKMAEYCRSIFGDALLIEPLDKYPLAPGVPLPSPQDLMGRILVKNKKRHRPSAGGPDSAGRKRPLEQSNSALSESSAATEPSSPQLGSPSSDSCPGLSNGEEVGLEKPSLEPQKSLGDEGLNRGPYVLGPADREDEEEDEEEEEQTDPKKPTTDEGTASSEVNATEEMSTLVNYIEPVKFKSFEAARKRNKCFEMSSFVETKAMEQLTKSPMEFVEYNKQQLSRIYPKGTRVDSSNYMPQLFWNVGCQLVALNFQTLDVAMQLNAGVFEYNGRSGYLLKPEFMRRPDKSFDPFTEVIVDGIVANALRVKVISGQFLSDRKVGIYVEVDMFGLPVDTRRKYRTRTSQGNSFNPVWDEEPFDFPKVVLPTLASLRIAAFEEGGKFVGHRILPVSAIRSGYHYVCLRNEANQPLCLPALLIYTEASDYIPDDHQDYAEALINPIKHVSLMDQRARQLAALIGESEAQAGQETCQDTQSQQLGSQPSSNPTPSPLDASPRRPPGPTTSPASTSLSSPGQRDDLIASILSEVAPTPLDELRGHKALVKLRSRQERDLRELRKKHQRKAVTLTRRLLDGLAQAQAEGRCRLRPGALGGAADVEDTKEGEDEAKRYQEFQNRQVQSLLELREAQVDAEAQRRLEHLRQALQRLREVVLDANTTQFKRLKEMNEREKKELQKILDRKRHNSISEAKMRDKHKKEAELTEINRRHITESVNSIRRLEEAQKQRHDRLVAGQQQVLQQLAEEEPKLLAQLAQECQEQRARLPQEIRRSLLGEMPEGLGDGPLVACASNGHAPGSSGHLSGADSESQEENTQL

Estrogen receptor = biological target: T5, Estrogen receptor (Homo sapiens, UniProt P03372);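 note: potency for inhibiting coactivator peptide recruitment to the receptor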
T5 sequence (P03372 whole entry): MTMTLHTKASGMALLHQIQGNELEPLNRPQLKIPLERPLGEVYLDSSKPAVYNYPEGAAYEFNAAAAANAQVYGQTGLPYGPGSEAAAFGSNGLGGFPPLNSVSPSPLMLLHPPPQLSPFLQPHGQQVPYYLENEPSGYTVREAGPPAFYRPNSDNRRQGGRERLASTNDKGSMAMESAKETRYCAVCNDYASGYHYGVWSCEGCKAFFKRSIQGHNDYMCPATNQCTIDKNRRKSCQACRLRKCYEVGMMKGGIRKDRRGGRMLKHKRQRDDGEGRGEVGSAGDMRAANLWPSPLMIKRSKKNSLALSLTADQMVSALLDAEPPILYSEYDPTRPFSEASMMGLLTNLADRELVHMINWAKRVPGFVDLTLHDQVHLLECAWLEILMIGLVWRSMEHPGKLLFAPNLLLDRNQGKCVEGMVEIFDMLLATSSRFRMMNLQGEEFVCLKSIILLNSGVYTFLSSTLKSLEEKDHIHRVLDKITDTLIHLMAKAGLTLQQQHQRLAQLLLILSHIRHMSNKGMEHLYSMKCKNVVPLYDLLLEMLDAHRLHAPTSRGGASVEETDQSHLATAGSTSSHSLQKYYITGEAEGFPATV

[8] = viability of uninfected HEp-2 cells – cell-based, HTS, cytotoxicity control for RSV inhibitor project, dose response (AID 2410); type: functional; details: human respiratory syncytial virus
[9] = biological target: T6, Carboxy-terminal domain RNA polymerase II polypeptide A small phosphatase 1 (Homo sapiens, UniProt Q9GZU7); assay: CTDSP1 inhibitors, concentration-response, biochemical, absorbance readout, ultra-high-throughput screen actives (AID 540297); type: functional
T6 sequence (Q9GZU7 whole entry): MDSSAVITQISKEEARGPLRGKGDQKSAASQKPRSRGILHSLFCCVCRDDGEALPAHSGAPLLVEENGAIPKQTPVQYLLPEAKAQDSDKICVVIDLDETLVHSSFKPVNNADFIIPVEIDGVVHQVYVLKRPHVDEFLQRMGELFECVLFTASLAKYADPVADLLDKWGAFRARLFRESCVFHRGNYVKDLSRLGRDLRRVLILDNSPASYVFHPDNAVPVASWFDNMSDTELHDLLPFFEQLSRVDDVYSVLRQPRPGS

Genome polyprotein = Genome polyprotein (dengue virus type 2, UniProt P29990); assay: flavivirus cap methylation enzyme inhibition – biochemical, confirmation dose response, primary screen (AID 588689); type: functional
[10] = biological target: G-protein coupled receptor 55 (Homo sapiens, UniProt Q9Y2T6); assay: inhibition of LPI-stimulated GPR55 beta-arrestin translocation – imaging, U2OS, beta-arrestin-GFP, LPI agonist, primary screen (AID 2013); type: functional;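 note: antagonist potency measured as reduced agonist-driven arrestin aggregation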
NS3 = NS3 (Hepatitis C virus, UniProt A3EZJ3); assay: PubChem AID 2173; parameters: species or system Hepacivirus hominis
Chain of NS3 (A3EZJ3 whole entry): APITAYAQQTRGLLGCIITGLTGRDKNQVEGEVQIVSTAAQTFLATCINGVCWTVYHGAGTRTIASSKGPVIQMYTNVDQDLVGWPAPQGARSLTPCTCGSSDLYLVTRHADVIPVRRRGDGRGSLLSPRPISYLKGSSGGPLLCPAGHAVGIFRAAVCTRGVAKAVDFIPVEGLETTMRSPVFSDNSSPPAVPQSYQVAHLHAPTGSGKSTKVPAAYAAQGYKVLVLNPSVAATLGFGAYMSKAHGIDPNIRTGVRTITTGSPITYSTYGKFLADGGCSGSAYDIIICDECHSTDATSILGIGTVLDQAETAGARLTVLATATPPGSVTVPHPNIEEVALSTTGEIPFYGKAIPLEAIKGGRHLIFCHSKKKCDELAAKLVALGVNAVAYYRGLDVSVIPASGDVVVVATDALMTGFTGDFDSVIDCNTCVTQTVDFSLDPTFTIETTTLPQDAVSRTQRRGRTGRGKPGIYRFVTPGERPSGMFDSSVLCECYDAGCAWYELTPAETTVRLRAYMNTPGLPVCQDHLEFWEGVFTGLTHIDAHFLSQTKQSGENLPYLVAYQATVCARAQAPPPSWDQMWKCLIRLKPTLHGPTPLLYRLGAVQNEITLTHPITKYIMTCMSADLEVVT

Chain of Glyceraldehyde-3-phosphate dehydrogenase (P04406 whole entry): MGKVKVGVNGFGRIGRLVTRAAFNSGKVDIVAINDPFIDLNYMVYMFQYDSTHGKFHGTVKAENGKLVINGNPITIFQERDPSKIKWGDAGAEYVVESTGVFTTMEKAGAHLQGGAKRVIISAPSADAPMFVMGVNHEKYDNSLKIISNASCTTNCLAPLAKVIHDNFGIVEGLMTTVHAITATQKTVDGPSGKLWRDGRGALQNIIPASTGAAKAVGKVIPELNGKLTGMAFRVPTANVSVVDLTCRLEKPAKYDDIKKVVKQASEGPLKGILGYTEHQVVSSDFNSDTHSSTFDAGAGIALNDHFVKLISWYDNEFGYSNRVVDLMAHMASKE
Chain of Estrogen receptor beta (Q92731 whole entry): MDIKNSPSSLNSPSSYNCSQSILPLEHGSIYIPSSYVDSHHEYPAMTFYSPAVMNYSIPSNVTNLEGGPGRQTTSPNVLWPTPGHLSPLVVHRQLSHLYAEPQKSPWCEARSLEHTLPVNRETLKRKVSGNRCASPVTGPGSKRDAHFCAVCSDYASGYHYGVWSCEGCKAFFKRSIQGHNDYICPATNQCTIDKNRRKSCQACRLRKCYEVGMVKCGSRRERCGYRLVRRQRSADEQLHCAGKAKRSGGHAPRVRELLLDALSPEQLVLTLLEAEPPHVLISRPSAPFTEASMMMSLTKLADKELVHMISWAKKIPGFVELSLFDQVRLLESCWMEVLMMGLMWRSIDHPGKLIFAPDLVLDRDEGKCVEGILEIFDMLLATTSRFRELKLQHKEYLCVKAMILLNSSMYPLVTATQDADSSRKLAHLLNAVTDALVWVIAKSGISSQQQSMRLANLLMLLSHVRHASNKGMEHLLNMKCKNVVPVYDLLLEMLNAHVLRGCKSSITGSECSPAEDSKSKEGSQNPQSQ
Chain of Eukaryotic translation initiation factor 4E (P63073 whole entry): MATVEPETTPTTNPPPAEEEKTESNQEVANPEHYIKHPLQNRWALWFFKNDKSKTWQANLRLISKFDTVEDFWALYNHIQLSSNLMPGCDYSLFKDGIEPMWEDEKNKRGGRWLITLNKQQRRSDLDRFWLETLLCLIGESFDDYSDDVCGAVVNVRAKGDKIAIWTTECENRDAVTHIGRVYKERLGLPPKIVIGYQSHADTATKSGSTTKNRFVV
Chain of Genome polyprotein (P29990 2492-3391 limits assumed): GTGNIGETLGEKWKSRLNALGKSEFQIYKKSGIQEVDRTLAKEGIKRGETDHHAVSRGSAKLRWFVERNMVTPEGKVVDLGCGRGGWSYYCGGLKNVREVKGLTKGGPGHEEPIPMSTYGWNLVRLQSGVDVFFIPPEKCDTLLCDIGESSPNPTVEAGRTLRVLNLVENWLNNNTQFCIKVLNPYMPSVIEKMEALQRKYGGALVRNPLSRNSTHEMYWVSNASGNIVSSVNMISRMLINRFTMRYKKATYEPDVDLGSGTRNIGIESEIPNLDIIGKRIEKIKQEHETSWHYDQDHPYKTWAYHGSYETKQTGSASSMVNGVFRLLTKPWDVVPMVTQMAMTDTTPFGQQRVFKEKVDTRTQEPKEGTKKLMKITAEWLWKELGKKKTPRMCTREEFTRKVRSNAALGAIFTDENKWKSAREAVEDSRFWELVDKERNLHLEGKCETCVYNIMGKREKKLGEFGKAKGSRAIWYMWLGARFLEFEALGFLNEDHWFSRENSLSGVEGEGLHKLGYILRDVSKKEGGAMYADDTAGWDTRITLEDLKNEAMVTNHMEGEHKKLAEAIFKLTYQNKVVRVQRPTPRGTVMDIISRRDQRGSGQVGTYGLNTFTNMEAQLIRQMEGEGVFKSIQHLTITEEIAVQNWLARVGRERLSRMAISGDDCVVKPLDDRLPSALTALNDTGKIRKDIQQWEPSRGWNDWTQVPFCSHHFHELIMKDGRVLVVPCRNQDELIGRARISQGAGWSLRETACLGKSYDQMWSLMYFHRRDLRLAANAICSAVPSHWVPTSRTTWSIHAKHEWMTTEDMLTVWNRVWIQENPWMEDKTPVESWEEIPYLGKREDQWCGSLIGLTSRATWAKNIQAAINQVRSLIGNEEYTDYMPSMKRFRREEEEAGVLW
Chain of G-protein coupled receptor 55 (Q9Y2T6 whole entry): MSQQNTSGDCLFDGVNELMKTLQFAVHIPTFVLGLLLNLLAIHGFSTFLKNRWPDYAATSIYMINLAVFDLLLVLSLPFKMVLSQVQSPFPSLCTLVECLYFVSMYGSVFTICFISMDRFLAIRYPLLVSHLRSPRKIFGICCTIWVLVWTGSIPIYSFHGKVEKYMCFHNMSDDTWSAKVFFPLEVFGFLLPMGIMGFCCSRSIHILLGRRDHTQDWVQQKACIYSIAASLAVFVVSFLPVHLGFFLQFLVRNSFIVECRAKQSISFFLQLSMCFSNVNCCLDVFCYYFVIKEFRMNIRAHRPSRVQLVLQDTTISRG

IC50 [1]: > 100 µM (not active)
IC50 (Bcl-2-related protein A1 [2]): 3.72 µM (active)
IC50 (Bcl-2-related protein A1 [3]): 13.4 µM (active)
SMILES: CN1CCN(C2=C(Cl)C(=O)N(c3c(Cl)cccc3Cl)C2=O)CC1

IC50 [4]: > 50 µM (not active)
IC50 [5]: 27.5 µM (active)
SMILES: c1ccc2[nH]c(SN3CCOCC3)nc2c1

IC50 [6]: > 123 µM (inactive)
IC50 [7]: > 123 µM (inactive)
SMILES: CCc1cccc(NC(=O)CN(c2ccc(OC)cc2)S(=O)(=O)c2c(C)n[nH]c2C)c1

IC50 (Estrogen receptor): > 50 µM (not active)
SMILES: COC(=O)c1cc(NC2c3ccccc3C(=O)N2c2ccc(Cl)cn2)cc(C(=O)OC)c1 (centres undefined)

IC50 [10]: 11.2 µM (inactive)
SMILES: O=C(Nc1ccccc1Cl)C(Cl)C(=O)c1ccccc1 (centres undefined)

IC50 [6]: > 122 µM (inactive)
IC50 [7]: > 122 µM (inactive)
SMILES: Cc1ccc(C23CC4CC(CC(C(=O)NCC(=O)O)(C4)C2)C3)cc1

IC50 (Estrogen receptor): > 50 µM (not active)
SMILES: C=CCn1c(=O)[nH]c2cc(C(=O)N3CCN(c4ccc(C(C)=O)cc4)CC3)ccc2c1=O

IC50 (NS3): 3.02 µM (active)
SMILES: Cc1cccc(N2C(=O)C(O)=C(C(=O)c3cccs3)C2c2cccc(Oc3ccccc3)c2)n1 (centres undefined)

The next lines start with the compound.

SMILES: N#Cc1c(NC(=O)CN2CCN(c3ccccc3)CC2)sc2c1CCC2
IC50 (Estrogen receptor beta): 44.5 µM (not active)

SMILES: O=C1C(Cl)=C(N2CCN(CCNCc3ccccn3)CC2)C(=O)N1c1ccc(Cl)c(Cl)c1
IC50 [1]: > 100 µM (not active)
IC50 (Bcl-2-related protein A1 [2]): 8.14 µM (active)
IC50 (Bcl-2-related protein A1 [3]): 16.3 µM (active)

SMILES: O=C1C(Cl)=C(Cl)C(=O)N1c1cccc([N+](=O)[O-])c1
IC50 [1]: > 100 µM (not active)
IC50 (Bcl-2-related protein A1 [2]): 16.4 µM (active)
IC50 (Bcl-2-related protein A1 [3]): 11.9 µM (active)

SMILES: Cc1sc2nc(C3CC3)nc(SCC(=O)N3c4ccccc4CC3C)c2c1C (centres undefined)
CC50 [8]: 7.61 µM (active)
IC50 (cells): 3.98 µM (active)

SMILES: O=C(CSc1nc(-c2ccc(F)cc2)cs1)NC(=O)NCc1ccco1
IC50 (Estrogen receptor): > 50 µM (not active)
IC50 [9]: 18.8 µM (active)

SMILES: COc1cc(Cl)cc(C(c2c(C(=O)O)[nH]c3ccccc23)c2c(C(=O)O)[nH]c3ccccc23)c1O
IC50 (Genome polyprotein): 16.9 µM (active)
IC50 [6]: 54 µM (inactive)
IC50 [7]: > 122 µM (inactive)

SMILES: O=C(O)c1ccccc1Nc1ccc(OC(F)F)cc1
CC50 [8]: 23.8 µM (active)
IC50 (cells): 40.9 µM (active)

SMILES: COc1ccc(-n2c(SCC(=O)/C(C#N)=C(\C)N)nc3ccccc3c2=O)cc1OC
IC50 (cells): 2.62 µM (active)

SMILES: OCCC1CN(Cc2cccn2-c2nccs2)CCN1CCc1ccccc1 (centres undefined)
IC50 (cells): 30.3 µM (active)

SMILES: O=C(Nc1ccc(F)cc1F)c1noc2c1CCC2
IC50 (Estrogen receptor beta): > 50 µM (not active)

SMILES: CSc1nc(N)c(C(=O)NC2CCCCC2)s1
IC50 [6]: > 123 µM (inactive)
IC50 [7]: > 123 µM (inactive)
